Reference: patent US20230365537A1, “POLO LIKE KINASE 4 INHIBITORS” (ORIC Pharmaceuticals, Inc., priority 2021, published 2023)

Columns and labels:
human recombinant PLK4 = human recombinant PLK4 (Homo sapiens (Human), UniProt O00444); assay: PLK4 Biochemical Assay (ADP-Glo); conditions: 0.5 nM PLK4, 8.0 µM ATP, 4.7 µM MBP, 6 hours at RT
How it was run: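 Luminescent ADP-Glo detection quantified ADP production, with ATP depletion for 40 min and detection for 30 min at room temperature. Compound and PLK4 (1.0 nM stock addition) were preincubated 15 min in HEPES pH 7.5 buffer containing MgCl2, EGTA, DTT, Brij-35 and BSA. IC50 values were obtained by four-parameter nonlinear regression.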

[1] = molecular target: human recombinant Aurora B (Homo sapiens (Human), UniProt Q96GD4); assay: Aurora B Kinase Biochemical Assay (ADP-Glo); conditions: ratio of Aurora B IC50 to PLK4 IC50 (selectivity)
How it was run: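 IC50 derived by four-parameter nonlinear fit of ADP-Glo luminescence (ADP produced). Compound was preincubated 15 min at RT with 20 nM recombinant human Aurora B, in 50 mM HEPES pH 7.5, 10 mM MgCl2, 1 mM EGTA, 1 mM DTT, 0.01% Brij-35/BSA.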

[2] = molecular target: human recombinant Aurora A (Homo sapiens (Human), UniProt O14965); assay: Aurora A Kinase Biochemical Assay (ADP-Glo); conditions: ratio of Aurora A IC50 to PLK4 IC50 (selectivity)
CHP-134 cells = assay: CHP134 CellTiter-Glo (CTG) Assay; format: cell-based; conditions: Homo sapiens, CHP-134, 120 h, 5 days, viable cells by CellTiter-Glo
How it was run: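 Nine-point 1:3 dilution series, diluted into growth media, added in quadruplicate to CHP-134 cells plated 16 h earlier at 200 cells/well.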

human recombinant PLK4, sequence (O00444 whole entry): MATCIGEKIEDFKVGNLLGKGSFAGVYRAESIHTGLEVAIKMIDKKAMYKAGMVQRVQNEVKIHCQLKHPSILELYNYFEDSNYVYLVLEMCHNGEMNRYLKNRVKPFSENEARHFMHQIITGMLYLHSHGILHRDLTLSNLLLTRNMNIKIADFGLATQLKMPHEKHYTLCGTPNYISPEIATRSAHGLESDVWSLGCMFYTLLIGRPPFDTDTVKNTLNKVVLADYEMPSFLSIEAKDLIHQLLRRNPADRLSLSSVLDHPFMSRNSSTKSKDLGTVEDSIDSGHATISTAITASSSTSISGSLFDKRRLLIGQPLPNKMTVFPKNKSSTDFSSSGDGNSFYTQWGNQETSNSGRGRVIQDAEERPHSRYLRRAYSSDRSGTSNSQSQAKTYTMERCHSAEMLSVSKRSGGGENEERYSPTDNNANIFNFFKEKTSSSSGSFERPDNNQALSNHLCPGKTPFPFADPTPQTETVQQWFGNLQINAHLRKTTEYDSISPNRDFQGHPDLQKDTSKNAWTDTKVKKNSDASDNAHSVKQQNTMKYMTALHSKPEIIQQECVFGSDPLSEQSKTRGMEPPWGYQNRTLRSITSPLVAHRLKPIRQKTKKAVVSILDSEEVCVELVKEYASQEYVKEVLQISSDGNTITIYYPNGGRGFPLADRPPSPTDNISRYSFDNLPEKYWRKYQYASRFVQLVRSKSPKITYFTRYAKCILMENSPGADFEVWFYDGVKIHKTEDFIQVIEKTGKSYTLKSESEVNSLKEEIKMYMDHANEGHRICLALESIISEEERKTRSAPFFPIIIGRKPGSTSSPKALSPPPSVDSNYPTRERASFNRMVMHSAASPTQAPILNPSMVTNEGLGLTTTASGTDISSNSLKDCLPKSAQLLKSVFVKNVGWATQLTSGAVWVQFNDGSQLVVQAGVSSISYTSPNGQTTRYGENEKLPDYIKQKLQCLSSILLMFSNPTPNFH
human recombinant Aurora B, sequence (Q96GD4 whole entry): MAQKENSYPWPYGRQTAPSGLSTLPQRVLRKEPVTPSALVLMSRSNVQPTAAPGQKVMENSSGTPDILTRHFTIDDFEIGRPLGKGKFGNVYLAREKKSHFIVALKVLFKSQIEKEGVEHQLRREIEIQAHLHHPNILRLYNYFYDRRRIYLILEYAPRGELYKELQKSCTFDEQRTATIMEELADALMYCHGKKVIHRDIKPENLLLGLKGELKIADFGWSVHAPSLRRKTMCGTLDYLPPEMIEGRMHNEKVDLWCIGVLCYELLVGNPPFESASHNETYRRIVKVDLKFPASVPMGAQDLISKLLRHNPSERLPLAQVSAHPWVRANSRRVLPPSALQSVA
human recombinant Aurora A, sequence (O14965 whole entry): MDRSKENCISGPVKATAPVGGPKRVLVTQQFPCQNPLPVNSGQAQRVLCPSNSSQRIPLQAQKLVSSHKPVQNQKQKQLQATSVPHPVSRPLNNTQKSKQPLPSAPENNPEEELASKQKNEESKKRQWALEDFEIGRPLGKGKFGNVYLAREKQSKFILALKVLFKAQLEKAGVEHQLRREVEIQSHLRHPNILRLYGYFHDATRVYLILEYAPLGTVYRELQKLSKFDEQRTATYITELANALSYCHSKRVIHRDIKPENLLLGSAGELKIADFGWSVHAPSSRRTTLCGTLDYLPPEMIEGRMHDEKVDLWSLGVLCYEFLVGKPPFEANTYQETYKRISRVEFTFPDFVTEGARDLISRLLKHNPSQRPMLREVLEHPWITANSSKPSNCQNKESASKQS

COc1ccc2c(c1)[C@]1(C[C@H]1c1ccc3c(Nc4nc(C)nc(N5C[C@@H](C)O[C@@H](C)C5)c4OC)n[nH]c3c1)C(=O)N2 [Example 67, (1R,2S)-2-[3-({6-[(2R,6S)-2,6-dimethylmorpholin-4-yl]-5-methoxy-2-methylpyrimidin-4-yl}amino)-1H-indazol-6-yl]-5′-methoxyspiro[cyclopropane-1,3′-indol]-2′(1′H)-one]
IC50 (human recombinant PLK4): 1.34 nM
[Aurora B IC50 (nM)]/[PLK4 IC50 (nM)] [1]: 499.9255
[Aurora A IC50 (nM)]/[PLK4 IC50 (nM)] [2]: 4976.155
IC50 (CHP-134 cells): 4390 nM

CCOc1cc(S(C)(=O)=O)ccc1Nc1n[nH]c2cc([C@@H]3C[C@@]34C(=O)Nc3ccc(OC)cc34)ccc12 [Example 272, (1R,2S)-2-{3-[2-Ethoxy-4-(methanesulfonyl)anilino]-1H-indazol-6-yl}-5′-methoxyspiro[cyclopropane-1,3′-indol]-2′(1′H)-one]
IC50 (human recombinant PLK4): 0.833 nM
[Aurora B IC50 (nM)]/[PLK4 IC50 (nM)] [1]: 448.8595
[Aurora A IC50 (nM)]/[PLK4 IC50 (nM)] [2]: 3273.7094
IC50 (CHP-134 cells): 77.8 nM

COc1ccc2c(c1)[C@]1(C[C@H]1c1ccc3c(Nc4cc(C)ncc4OC)n[nH]c3c1)C(=O)N2 [Example 86, (1R,2S)-5′-methoxy-2-{3-[(5-methoxy-2-methylpyridin-4-yl)amino]-1H-indazol-6-yl}spiro[cyclopropane-1,3′-indol]-2′(1′H)-one]
IC50 (human recombinant PLK4): 21.2 nM
[Aurora B IC50 (nM)]/[PLK4 IC50 (nM)] [1]: 669.3396
[Aurora A IC50 (nM)]/[PLK4 IC50 (nM)] [2]: 1414.623
IC50 (CHP-134 cells): 459 nM

COc1ccc2c(c1)[C@]1(C[C@H]1c1ccc3c(Nc4ccc(C(=O)NC(C)C)nc4OC)n[nH]c3c1)C(=O)N2 [Example 231, 6-methoxy-5-({6-[(1R,2S)-5′-methoxy-2′-oxo-1′,2′-dihydrospiro[cyclopropane-1,3′-indol]-2-yl]-1H-indazol-3-yl}amino)-N-(propan-2-yl)pyridine-2-carboxamide]
IC50 (human recombinant PLK4): 1.56 nM
[Aurora B IC50 (nM)]/[PLK4 IC50 (nM)] [1]: 316.7307
[Aurora A IC50 (nM)]/[PLK4 IC50 (nM)] [2]: 4955.7692
IC50 (CHP-134 cells): 397 nM

COc1ccc2c(c1)[C@]1(C[C@H]1c1ccc3c(Nc4cc(S(=O)(=O)N5CCOCC5)ccc4OC)n[nH]c3c1)C(=O)N2 [Example 216, (1R,2S)-5′-methoxy-2-{3-[2-methoxy-5-(morpholine-4-sulfonyl)anilino]-1H-indazol-6-yl}spiro[cyclopropane-1,3′-indol]-2′(1′H)-one]
IC50 (human recombinant PLK4): 2.69 nM
[Aurora B IC50 (nM)]/[PLK4 IC50 (nM)] [1]: 18601.19048
[Aurora A IC50 (nM)]/[PLK4 IC50 (nM)] [2]: 7712
IC50 (CHP-134 cells): 766 nM

COc1cnc(C)nc1Nc1n[nH]c2cc([C@@H]3C[C@@]34C(=O)Nc3ccc(F)cc34)ccc12 [Example 133, (1R,2S)-5′-fluoro-2-{3-[(5-methoxy-2-methylpyrimidin-4-yl)amino]-1H-indazol-6-yl}spiro[cyclopropane-1,3′-indol]-2′(1′H)-one]
IC50 (human recombinant PLK4): 8.32 nM
[Aurora B IC50 (nM)]/[PLK4 IC50 (nM)] [1]: 45.1453
[Aurora A IC50 (nM)]/[PLK4 IC50 (nM)] [2]: 43.3910
IC50 (CHP-134 cells): 193 nM

COc1ccc2c(c1)[C@]1(C[C@H]1c1ccc3c(Nc4nc(N5CC6(COC6)C5)ncc4OC)n[nH]c3c1)C(=O)N2 [Example 192, (1R,2S)-5′-methoxy-2-(3-{[5-methoxy-2-(2-oxa-6-azaspiro[3.3]heptan-6-yl)pyrimidin-4-yl]amino}-1H-indazol-6-yl)spiro[cyclopropane-1,3′-indol]-2′(1′H)-one]
IC50 (human recombinant PLK4): 1.64 nM
[Aurora B IC50 (nM)]/[PLK4 IC50 (nM)] [1]: 678.4625
[Aurora A IC50 (nM)]/[PLK4 IC50 (nM)] [2]: 2835.2654
IC50 (CHP-134 cells): 1180 nM

COc1ccc2c(c1)[C@]1(C[C@H]1c1ccc3c(Nc4ccc(S(=O)(=O)N(C)C)nc4OC)n[nH]c3c1)C(=O)N2 [Example 222, 6-methoxy-5-({6-[(1R,2S)-5′-methoxy-2′-oxo-1′,2′-dihydrospiro[cyclopropane-1,3′-indol]-2-yl]-1H-indazol-3-yl}amino)-N,N-dimethylpyridine-2-sulfonamide]
IC50 (human recombinant PLK4): 1.36 nM
[Aurora B IC50 (nM)]/[PLK4 IC50 (nM)] [1]: 546.4311
[Aurora A IC50 (nM)]/[PLK4 IC50 (nM)] [2]: 446.1368
IC50 (CHP-134 cells): 456 nM

COc1ccc2c(c1)[C@]1(C[C@H]1c1ccc3c(Nc4nc(C)ccc4OC)n[nH]c3c1)C(=O)N2 [Example 88, (1R,2S)-5′-methoxy-2-{3-[(3-methoxy-6-methylpyridin-2-yl)amino]-1H-indazol-6-yl}spiro[cyclopropane-1,3′-indol]-2′(1′H)-one]
IC50 (human recombinant PLK4): 2.67 nM
[Aurora B IC50 (nM)]/[PLK4 IC50 (nM)] [1]: 44.7979
[Aurora A IC50 (nM)]/[PLK4 IC50 (nM)] [2]: 1997.754
IC50 (CHP-134 cells): 1810 nM

COc1ccc2c(c1)[C@]1(C[C@H]1c1ccc3c(Nc4cc(C(C)C)nnc4OC)n[nH]c3c1)C(=O)N2 [Example 101, (1R,2S)-5′-methoxy-2-(3-{[3-methoxy-6-(propan-2-yl)pyridazin-4-yl]amino}-1H-indazol-6-yl)spiro[cyclopropane-1,3′-indol]-2′(1′H)-one]
IC50 (human recombinant PLK4): 11.3 nM
[Aurora B IC50 (nM)]/[PLK4 IC50 (nM)] [1]: 1002.648
[Aurora A IC50 (nM)]/[PLK4 IC50 (nM)] [2]: 1271.845
IC50 (CHP-134 cells): 2290 nM

COc1ccc2c(c1)[C@]1(C[C@H]1c1ccc3c(Nc4cc(S(=O)(=O)N(C)C)ccc4OC)n[nH]c3c1)C(=O)N2 [Example 179, 4-methoxy-3-({6-[(1R,2S)-5′-methoxy-2′-oxo-1′,2′-dihydrospiro[cyclopropane-1,3′-indol]-2-yl]-1H-indazol-3-yl}amino)-N,N-dimethylbenzene-1-sulfonamide]
IC50 (human recombinant PLK4): 3.81 nM
[Aurora B IC50 (nM)]/[PLK4 IC50 (nM)] [1]: 5384.4135
[Aurora A IC50 (nM)]/[PLK4 IC50 (nM)] [2]: 13119.9160
IC50 (CHP-134 cells): 948 nM

COc1ccc2c(c1)[C@]1(C[C@H]1c1ccc3c(Nc4nc(C5CCOCC5)ncc4OC)n[nH]c3c1)C(=O)N2 [Example 154, (1R,2S)-5′-methoxy-2-(3-{[5-methoxy-2-(oxan-4-yl)pyrimidin-4-yl]amino}-1H-indazol-6-yl)spiro[cyclopropane-1,3′-indol]-2′(1′H)-one]
IC50 (human recombinant PLK4): 0.976 nM
[Aurora B IC50 (nM)]/[PLK4 IC50 (nM)] [1]: 655.2254
[Aurora A IC50 (nM)]/[PLK4 IC50 (nM)] [2]: 1373.9754
IC50 (CHP-134 cells): 260 nM

COc1ccc2c(c1)[C@]1(C[C@H]1c1ccc3c(Nc4ccc(C(=O)N(C)C)nc4Cl)n[nH]c3c1)C(=O)N2 [Example 251, 6-chloro-5-({6-[(1R,2S)-5′-methoxy-2′-oxo-1′,2′-dihydrospiro[cyclopropane-1,3′-indol]-2-yl]-1H-indazol-3-yl}amino)-N,N-dimethylpyridine-2-carboxamide]
IC50 (human recombinant PLK4): 1.33 nM
[Aurora B IC50 (nM)]/[PLK4 IC50 (nM)] [1]: 268.6936
[Aurora A IC50 (nM)]/[PLK4 IC50 (nM)] [2]: 1734.2342
IC50 (CHP-134 cells): 287 nM

COc1ccc2c(c1)[C@]1(C[C@H]1c1ccc3c(Nc4nc(C)ncc4OC(F)F)n[nH]c3c1)C(=O)N2 [Example 121, (1R,2S)-2-(3-{[5-(difluoromethoxy)-2-methylpyrimidin-4-yl]amino}-1H-indazol-6-yl)-5′-methoxyspiro[cyclopropane-1,3′-indol]-2′(1′H)-one]
IC50 (human recombinant PLK4): 1.79 nM
[Aurora B IC50 (nM)]/[PLK4 IC50 (nM)] [1]: 230.8807
[Aurora A IC50 (nM)]/[PLK4 IC50 (nM)] [2]: 875.6967
IC50 (CHP-134 cells): 5320 nM

COc1ccc2c(c1)[C@]1(C[C@H]1c1ccc3c(Nc4cc(C)ncc4Cl)n[nH]c3c1)C(=O)N2 [Example 96, (1R,2S)-2-{3-[(5-chloro-2-methylpyridin-4-yl)amino]-1H-indazol-6-yl}-5′-metboxyspiro[cyclopropane-l,3′-indol]-2′(1′H)-one]
IC50 (human recombinant PLK4): 11.3 nM
[Aurora B IC50 (nM)]/[PLK4 IC50 (nM)] [1]: 351.8943
[Aurora A IC50 (nM)]/[PLK4 IC50 (nM)] [2]: 511.3656
IC50 (CHP-134 cells): 56.6 nM

COc1ccc2c(c1)[C@]1(C[C@H]1c1ccc3c(Nc4ncc(S(C)(=O)=O)cc4Cl)n[nH]c3c1)C(=O)N2 [Example 247, (1R,2S)-2-(3-{[3-chloro-5-(methanesulfonyl)pyridin-2-yl]amino}-1H-indazol-6-yl)-5′-methoxyspiro[cyclopropane-1,3′-indol]-2′(1′H)-one]
IC50 (human recombinant PLK4): 3.73 nM
[Aurora B IC50 (nM)]/[PLK4 IC50 (nM)] [1]: 423.6743
[Aurora A IC50 (nM)]/[PLK4 IC50 (nM)] [2]: 1434.9223
IC50 (CHP-134 cells): 1010 nM

COc1ccc2c(c1)[C@]1(C[C@H]1c1ccc3c(Nc4nc(C)nc(N5CC(O)C5)c4OC)n[nH]c3c1)C(=O)N2 [Example 73, (1R,2S)-2-(3-{[6-(3-hydroxyazetidin-l-yl)-5-methoxy-2-methylpyrimidin-4-yl]amino}-1H-indazol-6-yl)-5′-methoxyspiro[cyclopropane-1,3′-indol]-2′(1′H)-one]
IC50 (human recombinant PLK4): 7.04 nM
[Aurora B IC50 (nM)]/[PLK4 IC50 (nM)] [1]: 346.7708
[Aurora A IC50 (nM)]/[PLK4 IC50 (nM)] [2]: 3290.277
IC50 (CHP-134 cells): 10000 nM

CCOc1nc(C(=O)N(C)C)ccc1Nc1n[nH]c2cc([C@@H]3C[C@@]34C(=O)Nc3ccc(OC)cc34)ccc12 [Example 214, 6-ethoxy-5-({6-[(1R,2S)-5′-methoxy-2′-oxo-1′,2′-dihydrospiro[cyclopropane-1,3′-indol]-1-yl]-1H-indazol-3-yl}amino)-N,N-dimethylpyridine-2-carboxamide]
IC50 (human recombinant PLK4): 1.01 nM
[Aurora B IC50 (nM)]/[PLK4 IC50 (nM)] [1]: 59.0999
[Aurora A IC50 (nM)]/[PLK4 IC50 (nM)] [2]: 953
IC50 (CHP-134 cells): 32.2 nM
